“And” between values parts separate entries of the source, which are not always exact repeats. Equal entries are not always repeated.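 How tested: cells in 96-well plates exposed to compound for 48 hours at five concentrations. At the GI50, growth is halved. TGI denotes the concentration required for complete inhibition of growth.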
Legend:
Assay in all cases: DTP human tumour cell line panel, 48 h
SF-539 CNS = system: SF-539 CNS
SR leukemia = system: SR leukemia
RPMI-8226 leukemia = system: RPMI-8226 leukemia
HOP-62 NSCLC = system: HOP-62 NSCLC
EKVX NSCLC = system: EKVX NSCLC
SK-OV-3 ovarian = system: SK-OV-3 ovarian
NCI-H226 lung = system: NCI-H226 lung
U251 CNS = system: U251 CNS
OVCAR-4 ovarian = system: OVCAR-4 ovarian
HCT-15 colon = system: HCT-15 colon

SMILES	TGI (SF-539 CNS)	TGI (SR leukemia) [µM]	TGI (RPMI-8226 leukemia) [µM]	TGI (HOP-62 NSCLC)	TGI (EKVX NSCLC) [µM]	TGI (SK-OV-3 ovarian)	TGI (NCI-H226 lung)	TGI (U251 CNS) [µM]	TGI (OVCAR-4 ovarian)	TGI (HCT-15 colon) [µM]	GI50 (SF-539 CNS)	GI50 (SR leukemia)	GI50 (RPMI-8226 leukemia)	GI50 (HOP-62 NSCLC)	GI50 (EKVX NSCLC)	GI50 (SK-OV-3 ovarian)	GI50 (NCI-H226 lung)	GI50 (U251 CNS)	GI50 (OVCAR-4 ovarian)	GI50 (HCT-15 colon)
O=C1C2c3[nH]c4ccccc4c3C3CCCCCC3C2C(=O)N1c1ccccc1 (stereo not given)	> 52 µM	> 53.9	> 100	41.7 µM	> 100	34.1 µM	> 64.3 µM	> 45.6	> 24.5 µM	> 100										
CCN(CC)CCC(CNc1ccnc2cc(Cl)ccc12)c1ccccc1 (stereo not given)	4.11 µM	8.48	13.5	48.9 µM	> 100	52.8 µM	41.1 µM	14	35.7 µM	20.8	1.81 µM	2.23 µM	3.11 µM	12.1 µM	28.5 µM	18.4 µM	11.3 µM	3.93 µM	5.89 µM	3.51 µM
NC(=O)CC1(O)C=C(Br)C(=O)C(Br)=C1	9.15 µM	14.2	6.82	> 61.2 µM	19.7	32.3 µM	46.3 µM	24.1	15.9 µM	7.75	2.95 µM	1.7 µM	2.25 µM	26.1 µM	5.84 µM	17.9 µM	20.5 µM	10.6 µM	4.58 µM	2.65 µM
Nc1cc(C(F)(F)F)c(-c2cc(N3CCOCC3)nc(N3CCOCC3)n2)cn1	3.42 µM and 4.35 µM	> 30	> 23.1	4.31 µM and 4.87 µM		1.58 µM and 2.94 µM	4.42 µM and 4.6 µM	> 25	> 9.01 µM and 29 µM	> 41.1	0.976 µM and 1.39 µM	0.397 µM and 0.41 µM	1.31 µM and 1.47 µM	0.385 µM and 0.793 µM	0.721 µM and 1.22 µM	0.235 µM and 0.654 µM	0.839 µM and 0.592 µM	1.51 µM and 1.78 µM	1.4 µM and 1.27 µM	0.523 µM and 0.826 µM
O=C(/C=C/C(Cl)(Cl)Cl)Nc1ccc(Cl)cc1	3.97 µM	3.25	3.85	9.95 µM	13.7	34.6 µM	36.6 µM	26.2	4.02 µM	11.4										
COC1OC(CBr)C(OC(=O)c2ccccc2)C(OS(=O)(=O)c2ccc(C)cc2)C1Br (stereo not given)	> 100 µM	> 100	> 100	> 100 µM	> 100			> 100	> 100 µM	> 100										
COc1cc2c(cc1O)CN1CCC23C=C[C@@H](O)CC13 (stereo not given in full)		> 100	> 100	> 100 µM	> 100	> 100 µM	> 100 µM	> 100	> 100 µM	> 100										
COc1cc(/C=C/C(=O)N2CCC=CC2=O)cc(OC)c1OC	4.47 µM	> 100	4.81	22.2 µM	14.2	27.3 µM	6.55 µM	11	17.4 µM	5.01	1.82 µM	1.75 µM	1.5 µM	6.93 µM	2.94 µM	13.8 µM	2.41 µM	3.19 µM	3.11 µM	1.83 µM
O=CNc1ccc(S(=O)(=O)c2ccc(NC=O)cc2)cc1	> 100 µM	> 100	> 100	> 100 µM	> 100	> 100 µM		> 100	> 100 µM	> 100										
COc1cccc2nc3ccccc3nc12	> 100 µM	> 100	69.1	> 100 µM	> 100	> 100 µM	> 100 µM	> 100		> 100										
O=C(COc1ccc(OCC(=O)N2C(=O)CN(c3ccccc3)C2=S)cc1)N1C(=O)CN(c2ccccc2)C1=S	> 100 µM	> 100	> 100	> 100 µM	> 100	> 100 µM	> 100 µM	> 100	> 100 µM	> 100		> 100 µM	> 25 µM	> 25 µM	> 25 µM			> 25 µM	> 25 µM	> 25 µM
Cc1cc(C)c2c(c1)N[S@@](=O)S2	50.5 µM	83.7	88.5	> 100 µM	> 100	90.6 µM	38.5 µM	31.1	61.3 µM	33										
COC1=C(OC)C(=O)C(Sc2ccc3ccccc3c2)=CC1=O	> 57.7 µM	7.95	5.78	32.7 µM	30.5	31.7 µM	27.2 µM	21.4	48.5 µM	44.7										
Nc1nnnc2nc[nH]c12	13.5 µM	> 100	> 85.8	> 58 µM	> 100	6.22 µM	4.86 µM	> 100	> 100 µM	> 100	1.63 µM		0.245 µM	0.907 µM	0.7 µM	0.327 µM	1.05 µM	2.39 µM	0.547 µM	2.64 µM
Cc1c(-c2ccc(O)cc2)oc(=O)c2ccc(O)cc12	> 100 µM	> 100	> 100	> 100 µM	> 100	> 100 µM	> 100 µM	> 100	> 100 µM	> 100	36.7 µM	41.6 µM	31 µM	41 µM	54.6 µM	> 100 µM	> 100 µM	63.8 µM	> 100 µM	89.8 µM
C=C1C(=O)O[C@H]2[C@H]1CC/C(Cn1cc(-c3cccc(Cl)c3)nn1)=C\CC[C@@]1(C)O[C@@H]21	0.791 µM	0.886	3.36	3.68 µM	2.92	11.2 µM	3.75 µM	3.01	2.44 µM	0.479	0.258 µM	0.231 µM	0.506 µM	1.94 µM	1.57 µM	3.67 µM	1.71 µM	1.61 µM	1.09 µM	0.192 µM
